Results as given in ChEMBL document CHEMBL5532658 (Eur J Med Chem, 2024).
The source made the active and inactive calls. No cut-off for these calls is given here.

Key:
[1] = Oral bioavailability in CD1 mouse at 10 mg/kg measured upto 24 hrs by LC-MS/MS analysis; type: ADME, organism-based; conditions: in vivo
MDA-MB-453 [2] = experiment: Antiproliferative activity against human MDA-MB-453 cells incubated for 120 hrs by CCK-8 assay; type: functional, cell-based; conditions: MDA-MB-453, 120 h
[3] = Toxicity in Balb/c mouse xenografted with human MDA-MB-231 cells assessed as change in body weight at 5 to 10 mg/kg po administered once daily for 21 days and measured every three days; type: organism-based; conditions: in vivo, 504 h, dose 5-10 mg/kg, time 21 day
MDA-MB-453 [4] = experiment: Downregulation of Rb protein phosphorylation at Ser608 in human MDA-MB-453 cells incubated for 24 hrs by Western blot analysis; type: functional, cell-based; conditions: dose 37-333 nM
MDA-MB-453 [5] = experiment: Downregulation of Rb protein phosphorylation at Ser811 in human MDA-MB-453 cells incubated for 24 hrs by Western blot analysis; type: functional, cell-based; conditions: dose 37-333 nM
MDA-MB-453 [6] = experiment: Downregulation of Rb protein phosphorylation at Thr826 in human MDA-MB-453 cells incubated for 24 hrs by Western blot analysis; type: functional, cell-based; conditions: dose 37-333 nM
MDA-MB-231 [7] = experiment: Downregulation of Rb protein phosphorylation at Ser807 in human MDA-MB-231 cells incubated for 24 hrs by Western blot analysis; type: functional, cell-based; conditions: dose 37-333 nM
[8] = Cmax in CD1 mouse at 10 mg/kg, po measured upto 24 hrs by LC-MS/MS analysis; type: ADME, organism-based; conditions: in vivo
MDA-MB-231 [9] = experiment: Downregulation of Rb protein phosphorylation at Thr821 in human MDA-MB-231 cells incubated for 24 hrs by Western blot analysis; type: functional, cell-based; conditions: dose 37-333 nM
[10] = Metabolic stability in human liver microsomes assessed as half-life; type: ADME, Microsome
MDA-MB-231 [11] = experiment: Downregulation of Rb protein phosphorylation at Ser795 in human MDA-MB-231 cells incubated for 24 hrs by Western blot analysis; type: functional, cell-based; conditions: dose 37-333 nM
MDA-MB-453 [12] = experiment: Downregulation of Rb protein phosphorylation at Ser780 in human MDA-MB-453 cells incubated for 24 hrs by Western blot analysis; type: functional, cell-based; conditions: dose 37-333 nM
MDA-MB-453 [13] = experiment: Downregulation of Rb protein phosphorylation at Thr821 in human MDA-MB-453 cells incubated for 24 hrs by Western blot analysis; type: functional, cell-based; conditions: dose 37-333 nM
MDA-MB-231 [14] = experiment: Downregulation of Rb protein phosphorylation at Ser811 in human MDA-MB-231 cells incubated for 24 hrs by Western blot analysis; type: functional, cell-based; conditions: dose 37-333 nM
[15] = biological target: T1, Mitogen-activated protein kinase 15 (Homo sapiens) (UniProt Q8TD08); experiment: Inhibition of ERK7 (unknown origin) at 1 uM by discoverX kinomescan assay
T1 sequence (whole entry): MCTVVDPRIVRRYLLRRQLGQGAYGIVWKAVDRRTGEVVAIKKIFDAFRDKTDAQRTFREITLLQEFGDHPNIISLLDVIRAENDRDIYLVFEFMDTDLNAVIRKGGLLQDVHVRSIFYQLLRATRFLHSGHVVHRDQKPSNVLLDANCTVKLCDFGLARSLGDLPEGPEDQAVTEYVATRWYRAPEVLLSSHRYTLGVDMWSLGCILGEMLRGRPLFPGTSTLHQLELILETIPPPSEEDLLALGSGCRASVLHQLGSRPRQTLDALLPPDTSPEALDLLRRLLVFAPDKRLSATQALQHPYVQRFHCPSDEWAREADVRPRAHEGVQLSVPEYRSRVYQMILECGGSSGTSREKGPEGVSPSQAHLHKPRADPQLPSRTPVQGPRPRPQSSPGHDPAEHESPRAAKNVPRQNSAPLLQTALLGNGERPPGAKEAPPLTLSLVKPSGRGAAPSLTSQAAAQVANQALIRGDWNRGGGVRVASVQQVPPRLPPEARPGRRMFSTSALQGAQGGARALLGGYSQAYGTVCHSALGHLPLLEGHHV

[16] = biological target: Cyclin-dependent kinase 16 (Homo sapiens) (UniProt Q00536); experiment: Inhibition of CDK16 (unknown origin) at 1 uM by discoverX kinomescan assay
[17] = biological target: T2, Dual specificity mitogen-activated protein kinase kinase 5 (Homo sapiens, UniProt Q13163); experiment: Inhibition of MAP2K5 (unknown origin) by discoverX kinomescan assay
T2 sequence (Q13163 whole entry): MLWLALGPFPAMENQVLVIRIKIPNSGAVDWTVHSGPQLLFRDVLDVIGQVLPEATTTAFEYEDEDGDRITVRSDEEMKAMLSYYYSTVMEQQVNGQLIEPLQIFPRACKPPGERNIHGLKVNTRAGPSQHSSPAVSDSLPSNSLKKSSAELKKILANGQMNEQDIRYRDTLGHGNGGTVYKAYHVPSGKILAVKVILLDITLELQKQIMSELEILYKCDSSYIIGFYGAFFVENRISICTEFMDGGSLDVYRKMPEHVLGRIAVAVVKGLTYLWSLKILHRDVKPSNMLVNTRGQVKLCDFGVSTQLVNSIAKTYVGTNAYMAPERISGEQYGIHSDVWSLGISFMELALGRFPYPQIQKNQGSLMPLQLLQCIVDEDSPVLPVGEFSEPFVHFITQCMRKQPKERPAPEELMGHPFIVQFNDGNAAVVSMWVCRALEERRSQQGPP

MDA-MB-231 [18] = experiment: Downregulation of Rb protein phosphorylation at Ser780 in human MDA-MB-231 cells incubated for 24 hrs by Western blot analysis; type: functional, cell-based; conditions: dose 37-333 nM
[19] = biological target: Cyclin-dependent kinase 13 (Homo sapiens) (UniProt Q14004); experiment: Inhibition of CDK13 (unknown origin) at 1 uM by discoverX kinomescan assay
[20] = Half life in CD1 mouse at 1 mg/kg, iv measured upto 24 hrs by LC-MS/MS analysis; type: ADME, organism-based; conditions: in vivo
MDA-MB-231 [21] = experiment: Antitumor activity against human MDA-MB-231 cells xenografted in Balb/c mouse assessed as tumor regression at 5 to 10 mg/kg, po administered once daily and measured at day 15; type: functional, organism-based; conditions: dose 5-10 mg/kg
MDA-MB-231 [22] = experiment: Inhibition of RNA polymerase 2 C-terminal domain phosphorylation at Ser7 in heptad repeat in human MDA-MB-231 cells at 37 to 333 nM incubated for 24 hrs by Western blotting analysis; type: cell-based; conditions: dose 37-333 nM
[23] = biological target: Cyclin-dependent kinase 17 (Homo sapiens) (UniProt Q00537); experiment: Inhibition of CDK17 (unknown origin) at 1 uM by discoverX kinomescan assay
[24] = Volume of distribution at steady state in CD1 mouse at 1 mg/kg, iv measured upto 24 hrs by LC-MS/MS analysis; type: ADME, organism-based; conditions: in vivo, read-out: Vdss
MDA-MB-453 [25] = experiment: Downregulation of Rb protein phosphorylation at Ser807 in human MDA-MB-453 cells incubated for 24 hrs by Western blot analysis; type: functional, cell-based; conditions: dose 37-333 nM

Sequence of Cyclin-dependent kinase 13 (Homo sapiens) (Q14004 whole entry, looked up): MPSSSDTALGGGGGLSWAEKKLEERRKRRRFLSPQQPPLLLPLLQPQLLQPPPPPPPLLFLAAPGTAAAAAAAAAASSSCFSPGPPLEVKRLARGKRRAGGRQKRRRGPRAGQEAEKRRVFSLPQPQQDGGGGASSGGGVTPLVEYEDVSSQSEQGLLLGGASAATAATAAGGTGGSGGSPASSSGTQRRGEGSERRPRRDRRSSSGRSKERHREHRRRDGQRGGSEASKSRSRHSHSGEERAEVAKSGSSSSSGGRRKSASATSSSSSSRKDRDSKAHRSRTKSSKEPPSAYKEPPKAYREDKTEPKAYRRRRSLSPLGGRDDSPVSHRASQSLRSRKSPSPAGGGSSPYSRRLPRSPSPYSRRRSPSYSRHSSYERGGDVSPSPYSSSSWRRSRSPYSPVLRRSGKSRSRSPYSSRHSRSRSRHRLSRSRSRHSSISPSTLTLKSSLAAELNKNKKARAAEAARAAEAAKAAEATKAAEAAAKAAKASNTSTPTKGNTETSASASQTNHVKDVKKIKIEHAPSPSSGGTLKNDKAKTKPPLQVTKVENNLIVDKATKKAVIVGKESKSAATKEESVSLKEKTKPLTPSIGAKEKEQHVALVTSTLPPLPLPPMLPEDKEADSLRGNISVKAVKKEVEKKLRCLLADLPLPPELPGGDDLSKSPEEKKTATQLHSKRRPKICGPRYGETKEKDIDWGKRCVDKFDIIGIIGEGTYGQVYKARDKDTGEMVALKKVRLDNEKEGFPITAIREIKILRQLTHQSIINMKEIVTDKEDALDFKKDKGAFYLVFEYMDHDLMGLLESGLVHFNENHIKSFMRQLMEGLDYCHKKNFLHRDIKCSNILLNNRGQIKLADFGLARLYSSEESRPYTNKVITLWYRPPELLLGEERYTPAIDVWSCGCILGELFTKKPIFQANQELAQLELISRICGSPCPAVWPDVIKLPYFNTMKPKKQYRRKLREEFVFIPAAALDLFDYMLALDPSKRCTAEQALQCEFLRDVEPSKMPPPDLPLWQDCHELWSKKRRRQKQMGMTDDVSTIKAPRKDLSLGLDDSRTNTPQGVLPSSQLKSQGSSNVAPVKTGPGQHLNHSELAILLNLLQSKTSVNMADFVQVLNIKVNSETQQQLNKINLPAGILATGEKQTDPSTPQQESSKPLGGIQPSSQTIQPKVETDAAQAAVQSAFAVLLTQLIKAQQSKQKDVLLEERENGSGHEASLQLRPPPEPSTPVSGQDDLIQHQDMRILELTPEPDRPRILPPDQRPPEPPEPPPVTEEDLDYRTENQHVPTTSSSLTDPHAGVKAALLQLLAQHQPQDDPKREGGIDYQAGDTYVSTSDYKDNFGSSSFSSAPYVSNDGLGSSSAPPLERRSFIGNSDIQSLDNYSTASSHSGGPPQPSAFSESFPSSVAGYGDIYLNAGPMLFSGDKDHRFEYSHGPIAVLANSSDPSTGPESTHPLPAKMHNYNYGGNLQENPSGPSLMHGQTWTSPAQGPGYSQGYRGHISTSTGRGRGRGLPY
Sequence of Cyclin-dependent kinase 17 (Homo sapiens) (Q00537 whole entry, looked up): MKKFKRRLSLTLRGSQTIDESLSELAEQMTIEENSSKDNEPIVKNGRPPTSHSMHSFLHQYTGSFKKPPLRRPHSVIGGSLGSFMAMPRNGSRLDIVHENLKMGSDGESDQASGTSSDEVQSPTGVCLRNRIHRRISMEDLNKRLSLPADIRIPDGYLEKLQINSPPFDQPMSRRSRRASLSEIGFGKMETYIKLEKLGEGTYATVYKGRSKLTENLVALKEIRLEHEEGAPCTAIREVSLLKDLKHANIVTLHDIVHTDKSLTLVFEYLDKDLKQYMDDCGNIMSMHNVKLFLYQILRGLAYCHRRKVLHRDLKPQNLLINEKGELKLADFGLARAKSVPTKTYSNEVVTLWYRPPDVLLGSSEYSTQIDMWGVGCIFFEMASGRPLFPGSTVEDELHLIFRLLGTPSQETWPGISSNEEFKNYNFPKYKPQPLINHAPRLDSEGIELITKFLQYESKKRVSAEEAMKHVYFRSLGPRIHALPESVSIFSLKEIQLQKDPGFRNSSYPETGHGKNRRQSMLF
Sequence of Cyclin-dependent kinase 16 (Homo sapiens) (Q00536 whole entry): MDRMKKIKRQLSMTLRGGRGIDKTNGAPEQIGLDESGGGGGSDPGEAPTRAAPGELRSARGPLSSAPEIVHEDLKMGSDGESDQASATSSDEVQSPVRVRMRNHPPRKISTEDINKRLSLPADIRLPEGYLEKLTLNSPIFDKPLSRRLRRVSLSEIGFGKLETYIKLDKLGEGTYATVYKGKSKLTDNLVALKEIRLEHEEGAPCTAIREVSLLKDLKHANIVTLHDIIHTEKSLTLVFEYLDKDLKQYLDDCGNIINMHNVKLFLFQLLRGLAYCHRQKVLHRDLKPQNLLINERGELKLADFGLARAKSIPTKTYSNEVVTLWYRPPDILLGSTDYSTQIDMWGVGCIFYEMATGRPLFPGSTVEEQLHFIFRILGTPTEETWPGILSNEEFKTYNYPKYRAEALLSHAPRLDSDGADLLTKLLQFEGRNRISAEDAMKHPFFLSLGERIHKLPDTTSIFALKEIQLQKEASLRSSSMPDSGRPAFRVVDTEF

**Q.** What does the source list for CP(C)(=O)c1c(C#N)ccc2c(-c3nc(N[C@@H]4CNC[C@@H](F)C4)nc4ccsc34)c[nH]c12?
**A.** bioavailability [1]: 22.3%; EC50 (MDA-MB-453 [2]): 150 nM; Activity [3]: Non-Toxic; Activity (MDA-MB-453 [4]): Dose-Dependent Effect; Activity (MDA-MB-453 [5]): Dose-Dependent Effect; Activity (MDA-MB-453 [6]): Dose-Dependent Effect; Activity (MDA-MB-231 [7]): Dose-Dependent Effect; Cmax [8]: 117 ng/mL; Activity (MDA-MB-231 [9]): Dose-Dependent Effect; half-life [10]: 1.2 h; Activity (MDA-MB-231 [11]): Dose-Dependent Effect; Activity (MDA-MB-453 [12]): Dose-Dependent Effect; Activity (MDA-MB-453 [13]): Dose-Dependent Effect; Activity (MDA-MB-231 [14]): Dose-Dependent Effect; inhibition [15]: inactive; inhibition [16]: inactive; IC50 [17]: 170 nM; Activity (MDA-MB-231 [18]): Dose-Dependent Effect; inhibition [19]: inactive; half-life [20]: 1.9 h; Activity (MDA-MB-231 [21]): Active; inhibition (MDA-MB-231 [22]): Active; inhibition [23]: inactive; Vd [24]: 4.6 L/kg; Activity (MDA-MB-453 [25]): Dose-Dependent Effect
